Values quoted from earlier work, collected in patent US20100216762A1, “Agonists and Antagonists of the S1P5 Receptor, and Methods of Use Thereof” (ABBOTT LABORATORIES, priority 2009, published 2010).

How the values were obtained:
[1] = spared-nerve injury model of neuropathic pain

CCCCCCCCc1ccc(CCC(N)(CO)CO)cc1 [FTY720]
Aβ-induced migration of monocytes to sites of injury (monocytes): inhibits that migration
nociceptive behavior in the spared-nerve injury model [1]: reduced nociceptive behavior
nociception in the formalin model: anti-nociceptive

FC(F)(F)c1cccc(-c2noc(-c3cc(-c4ccccc4)c(C(F)(F)F)s3)n2)c1 [SEW2871]
nociception in the formalin model: lack of activity
